Counter-ions that a name gives are not always drawn.
target: TTX resistant Na channel of human SNS-expressing cell (SNS) (Homo sapiens, UniProt Q9Y5Y9); assay: cell-based; details: CHO-K1, compound concentration 12.5 μM; read-out: SNS inhibitory rate (%)
Sequence (Q9Y5Y9 whole entry, looked up): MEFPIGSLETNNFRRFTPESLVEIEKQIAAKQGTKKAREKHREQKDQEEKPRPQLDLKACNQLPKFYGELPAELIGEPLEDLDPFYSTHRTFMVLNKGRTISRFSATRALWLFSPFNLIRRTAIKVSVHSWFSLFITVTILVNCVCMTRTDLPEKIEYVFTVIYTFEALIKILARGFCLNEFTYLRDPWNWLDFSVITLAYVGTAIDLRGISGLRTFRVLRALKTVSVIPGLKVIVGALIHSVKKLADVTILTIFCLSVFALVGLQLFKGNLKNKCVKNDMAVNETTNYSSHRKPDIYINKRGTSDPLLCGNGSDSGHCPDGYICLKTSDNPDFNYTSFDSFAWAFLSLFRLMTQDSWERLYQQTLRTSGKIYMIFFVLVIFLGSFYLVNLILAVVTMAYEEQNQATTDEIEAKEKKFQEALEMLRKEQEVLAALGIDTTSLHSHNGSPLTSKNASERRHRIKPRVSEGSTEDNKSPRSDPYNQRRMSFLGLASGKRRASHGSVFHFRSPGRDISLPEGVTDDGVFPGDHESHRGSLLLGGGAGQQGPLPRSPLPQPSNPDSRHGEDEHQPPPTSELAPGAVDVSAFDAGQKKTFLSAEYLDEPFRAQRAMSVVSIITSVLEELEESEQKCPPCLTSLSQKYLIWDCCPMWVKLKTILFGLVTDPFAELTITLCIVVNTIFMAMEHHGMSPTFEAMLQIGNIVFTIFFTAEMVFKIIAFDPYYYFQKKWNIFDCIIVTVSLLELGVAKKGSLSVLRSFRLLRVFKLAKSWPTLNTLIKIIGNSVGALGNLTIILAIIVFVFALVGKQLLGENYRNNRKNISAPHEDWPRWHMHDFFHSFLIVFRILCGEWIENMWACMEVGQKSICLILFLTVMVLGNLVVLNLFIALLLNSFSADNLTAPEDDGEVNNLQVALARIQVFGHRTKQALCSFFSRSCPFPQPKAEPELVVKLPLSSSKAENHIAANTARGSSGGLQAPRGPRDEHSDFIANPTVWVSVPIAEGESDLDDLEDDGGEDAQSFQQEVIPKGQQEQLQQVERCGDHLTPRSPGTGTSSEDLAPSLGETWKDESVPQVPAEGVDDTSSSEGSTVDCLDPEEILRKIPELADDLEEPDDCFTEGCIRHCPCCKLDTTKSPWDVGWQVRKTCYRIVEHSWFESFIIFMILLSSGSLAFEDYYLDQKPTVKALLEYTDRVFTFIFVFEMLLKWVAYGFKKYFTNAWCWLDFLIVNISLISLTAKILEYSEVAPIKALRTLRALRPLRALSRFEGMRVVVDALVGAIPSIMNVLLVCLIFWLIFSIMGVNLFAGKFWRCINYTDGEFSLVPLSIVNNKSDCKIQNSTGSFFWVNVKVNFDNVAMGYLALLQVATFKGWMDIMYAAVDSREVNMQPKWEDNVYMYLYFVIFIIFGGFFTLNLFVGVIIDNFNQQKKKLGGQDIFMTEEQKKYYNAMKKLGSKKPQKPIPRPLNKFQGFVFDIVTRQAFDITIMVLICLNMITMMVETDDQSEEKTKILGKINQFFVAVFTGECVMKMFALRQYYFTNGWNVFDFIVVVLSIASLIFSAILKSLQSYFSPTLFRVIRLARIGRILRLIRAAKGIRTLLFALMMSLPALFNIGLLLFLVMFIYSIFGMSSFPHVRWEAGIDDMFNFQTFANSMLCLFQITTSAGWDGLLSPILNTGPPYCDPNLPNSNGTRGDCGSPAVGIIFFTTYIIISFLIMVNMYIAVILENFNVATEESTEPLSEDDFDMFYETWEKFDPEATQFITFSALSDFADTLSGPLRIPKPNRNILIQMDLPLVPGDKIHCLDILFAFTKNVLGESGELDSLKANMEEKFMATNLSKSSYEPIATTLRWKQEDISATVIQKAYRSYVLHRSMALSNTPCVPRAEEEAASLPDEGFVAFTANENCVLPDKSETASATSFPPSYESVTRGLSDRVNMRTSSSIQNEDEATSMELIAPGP

Compared with `C[C@H](NCc1nc2ccc(Oc3ccc(F)cc3F)cc2n1C[C@@H]1CCCO1)C(N)=O` [Example 121], `C[C@H](NCc1nc2ccc(Oc3ccc(F)cc3F)cc2n1C[C@H]1CCCO1)C(N)=O` [Example 125] is higher in inhibition at 12.5 µM: 94.3% for the first, 95.9% for the second.

Going from `COCCCn1c(CN[C@@H](C)C(N)=O)nc2ccc(Oc3ccc(F)c(F)c3)cc21` [Example 122] to `COCCCn1c(CN[C@@H](C)C(N)=O)nc2ccc(Oc3ccc(F)cc3F)cc21` [Example 123], the inhibition at 12.5 µM falls from 100% to 96.8%.

First: C[C@H](NCc1nc2ccc(Oc3ccc(F)c(F)c3)cc2n1C[C@H]1CCCO1)C(N)=O [Example 124]
Second: Cc1ccc(Oc2ccc3nc(CN[C@@H](C)C(N)=O)n(C[C@H]4CCCO4)c3c2)cc1 [Example 131]
The inhibition at 12.5 µM of the first is higher: 87.8% for the first, 55.9% for the second.

Compared with `COCCCn1c(CN[C@@H](C)C(N)=O)nc2ccc(Oc3ccc(C)cc3)cc21` [Example 126], `COCCCn1c(CNC(C)(C)C(N)=O)nc2ccc(Oc3ccc(C)cc3)cc21` [Example 142] is lower in inhibition at 12.5 µM: 56.9% for the first, 47.9% for the second.

Going from `COCCCn1c(CN[C@@H](C)C(N)=O)nc2ccc(Oc3ccc(OC(F)(F)F)cc3)cc21` [Example 127] to `C[C@H](NCc1nc2ccc(Oc3ccc(OC(F)(F)F)cc3)cc2n1CCCO)C(N)=O` [Example 133], the inhibition at 12.5 µM falls from 93.9% to 91.7%.

Going from `C[C@H](NCc1nc2ccc(Oc3ccc(F)c(F)c3)cc2n1C1CCOCC1)C(N)=O` [Example 128] to `Cc1ccc(Oc2ccc3nc(CN[C@@H](C)C(N)=O)n(C4CCOCC4)c3c2)cc1` [Example 129], the inhibition at 12.5 µM rises from 85% to 90.3%.

Compared with `C[C@H](NCc1nc2ccc(Oc3ccc(OC(F)(F)F)cc3)cc2n1C1CCOCC1)C(N)=O` [Example 130], `C[C@H](NCc1nc2ccc(Oc3ccc(OC(F)(F)F)cc3)cc2n1C[C@H]1CCCO1)C(N)=O` [Example 132] is higher in inhibition at 12.5 µM: 42.1% for the first, 86.4% for the second.

Going from `C[C@H](NCc1nc2ccc(Oc3ccc(OC(F)(F)F)cc3)cc2n1CCO)C(N)=O` [Example 134] to `CCOCCn1c(CN[C@@H](C)C(N)=O)nc2ccc(-c3ccc(OC(F)(F)F)cc3)cc21` [Example 145], the inhibition at 12.5 µM falls from 95.7% to 1.3%.

First: CCn1c(CNC(C)(C)C(N)=O)nc2ccc(Oc3ccc(C)cc3)cc21 [Example 135]
Second: CCn1c(CNC(C)(C)C(N)=O)nc2ccc(Oc3ccc(F)cc3)cc21 [Example 138]
The inhibition at 12.5 µM of the first is lower: 57.8% for the first, 93.1% for the second.

Compared with `CC(C)(NCc1nc2ccc(Oc3ccc(F)cc3)cc2n1C1CC1)C(N)=O` [Example 136], `Cc1ccc(Oc2ccc3nc(CNC(C)(C)C(N)=O)n(C4CCOCC4)c3c2)cc1` [Example 140] is higher in inhibition at 12.5 µM: 28.7% for the first, 97.5% for the second.

First: CC(C)(NCc1nc2ccc(Oc3ccc(F)cc3F)cc2n1C[C@@H]1CCCO1)C(N)=O [Example 137]
Second: CCOCCn1c(CNC(C)(C)C(N)=O)nc2ccc(Oc3ccc(F)c(F)c3)cc21 [Example 141]
The inhibition at 12.5 µM of the first is higher: 90.7% for the first, 90.3% for the second.

Compared with `CCn1c(CN[C@@H](C)C(N)=O)nc2ccc(Oc3ccc(F)cc3)cc21` [Example 139], `CC(C)(NCc1nc2ccc(Oc3ccc(F)cc3)cc2n1CCO)C(N)=O` [Example 143] is lower in inhibition at 12.5 µM: 96% for the first, 27.7% for the second.

Going from `CCOCCn1c(CN[C@@H](C)C(N)=O)nc2ccc(-c3ccc(C)cc3)cc21` [Example 144] to `CCOCCn1c(CN[C@@H](C)C(N)=O)nc2ccc(-c3cccc(C)c3)cc21` [Example 152], the inhibition at 12.5 µM rises from 6.1% to 8.9%.

First: CCOCCn1c(CN[C@@H](C)C(N)=O)nc2ccc(-c3ccc(C(F)(F)F)cc3)cc21 [Example 146]
Second: CCOCCn1c(CN[C@@H](C)C(N)=O)nc2cc(Cl)c(-c3ccc(C(F)(F)F)cc3)cc21 [Example 182]
The inhibition at 12.5 µM of the first is higher: 19.7% for the first, 0% for the second.

First: CCOCCn1c(CN[C@@H](C)C(N)=O)nc2ccc(-c3ccc(F)cc3F)cc21 [Example 147]
Second: CCOCCn1c(CN[C@@H](C)C(N)=O)nc2ccc(-c3ccc(F)cc3Cl)cc21 [Example 155]
The inhibition at 12.5 µM of the first is lower: 23.5% for the first, 86.1% for the second.

Compared with `CCOCCn1c(CN[C@@H](C)C(N)=O)nc2ccc(-c3ccc(F)c(F)c3)cc21` [Example 148], `CCOCCn1c(CN[C@@H](C)C(N)=O)nc2ccc(-c3ccc(F)c(C)c3)cc21` [Example 167] is higher in inhibition at 12.5 µM: 17% for the first, 82.8% for the second.

First: CCOCCn1c(CNC(C)(C)C(N)=O)nc2ccc(-c3ccc(F)cc3)cc21 [Example 149]
Second: CCn1c(CNC(C)(C)C(N)=O)nc2ccc(-c3ccc(F)cc3)cc21 [Example 154]
The inhibition at 12.5 µM of the first is higher: 30.6% for the first, 11.2% for the second.

First: CCOCCn1c(CN[C@@H](CC)C(N)=O)nc2ccc(-c3ccc(F)cc3)cc21 [Example 150]
Second: CCOCCn1c(CN[C@H](C(N)=O)C(C)C)nc2ccc(-c3ccc(F)cc3)cc21 [Example 151]
The inhibition at 12.5 µM of the first is higher: 45.6% for the first, 26.6% for the second.

First: CCOCCn1c(CN[C@@H](C)C(N)=O)nc2ccc(-c3ccccc3C)cc21 [Example 153]
Second: CCOCCn1c(CN[C@@H](C)C(N)=O)nc2ccc(-c3ccc(F)cc3C)cc21 [Example 157]
The inhibition at 12.5 µM of the first is lower: 28.5% for the first, 89.9% for the second.

First: CCOCCn1c(CNC(C)(C)C(N)=O)nc2ccc(-c3ccc(F)cc3Cl)cc21 [Example 156]
Second: CCOCCn1c(CNC(C)(C)C(N)=O)nc2ccc(-c3ccc(F)cc3C)cc21 [Example 158]
The inhibition at 12.5 µM of the first is lower: 71.2% for the first, 86.1% for the second.

Going from `CCOCCn1c(CN[C@@H](C)C(N)=O)nc2ccc(-c3ccc(C)cc3C)cc21` [Example 159] to `CCOCCn1c(CN[C@@H](C)C(N)=O)nc2ccc(-c3ccc(C)cc3F)cc21` [Example 165], the inhibition at 12.5 µM rises from 96.1% to 100%.

Compared with `CCOCCn1c(CNC(C)(C)C(N)=O)nc2ccc(-c3ccc(C)cc3C)cc21` [Example 160], `CCOCCn1c(CNC(C)(C)C(N)=O)nc2ccc(-c3ccc(C)cc3F)cc21` [Example 166] is lower in inhibition at 12.5 µM: 97% for the first, 62.7% for the second.

First: CCOCCn1c(CN[C@@H](C)C(N)=O)nc2ccc(-c3ccc(C)c(C)c3)cc21 [Example 161]
Second: CCOCCn1c(CN[C@@H](C)C(N)=O)nc2ccc(-c3ccc(C)c(F)c3)cc21 [Example 169]
The inhibition at 12.5 µM of the first is higher: 76.2% for the first, 68.1% for the second.

Going from `CCOCCn1c(CNC(C)(C)C(N)=O)nc2ccc(-c3ccc(C)c(C)c3)cc21` [Example 162] to `CCOCCn1c(CNC(C)(C)C(N)=O)nc2ccc(-c3ccc(F)c(C)c3)cc21` [Example 168], the inhibition at 12.5 µM falls from 67.3% to 20.2%.

Going from `CCOCCn1c(CN[C@@H](CC)C(N)=O)nc2ccc(-c3ccc(C)c(C)c3)cc21` [Example 163] to `CCOCCn1c(CN[C@@H](C)C(N)=O)nc2ccc(-c3ccc(F)c(OC)c3)cc21` [Example 173], the inhibition at 12.5 µM falls from 36.5% to 27.1%.

Compared with `CCOCCn1c(CN[C@@H](C)C(N)=O)nc2ccc(-c3c(C)cc(C)cc3C)cc21` [Example 164], `CCOCCn1c(CN[C@@H](C)C(N)=O)nc2cc(F)c(-c3ccc(F)c(C)c3)cc21` [Example 188] is higher in inhibition at 12.5 µM: 3.7% for the first, 87% for the second.

Going from `CCOCCn1c(CNC(C)(C)C(N)=O)nc2ccc(-c3ccc(C)c(F)c3)cc21` [Example 170] to `CCOCCn1c(CNC(C)(C)C(N)=O)nc2ccc(-c3ccc(F)c(OC)c3)cc21` [Example 175], the inhibition at 12.5 µM falls from 14.2% to 5.9%.

Compared with `CCOCCn1c(CN[C@@H](C)C(N)=O)nc2ccc(-c3cccc(F)c3F)cc21` [Example 171], `CCOCCn1c(CN[C@@H](C)C(N)=O)nc2ccc(-c3ccc(F)cc3OC)cc21` [Example 172] is higher in inhibition at 12.5 µM: 38.3% for the first, 50.9% for the second.

Going from `CCOCCn1c(CNC(C)(C)C(N)=O)nc2ccc(-c3ccc(F)cc3OC)cc21` [Example 174] to `CCn1c(CNC(C)(C)C(N)=O)nc2cc(F)c(-c3ccc(F)cc3)cc21` [Example 187], the inhibition at 12.5 µM rises from 33.4% to 53.3%.

Compared with `CCOCCn1c(CN[C@@H](C)C(N)=O)nc2cc(Cl)c(-c3ccccc3)cc21` [Example 177], `CCOCCn1c(CN[C@@H](C)C(N)=O)nc2cc(F)c(-c3ccccc3)cc21` [Example 185] is higher in inhibition at 12.5 µM: 22.5% for the first, 64.6% for the second.

First: CCOCCn1c(CN[C@@H](C)C(N)=O)nc2cc(Cl)c(-c3ccc(C)cc3)cc21 [Example 178]
Second: CCOCCn1c(CN[C@@H](C)C(N)=O)nc2cc(F)c(-c3ccc(C)cc3)cc21 [Example 184]
The inhibition at 12.5 µM of the first is lower: 16% for the first, 87.9% for the second.

First: CCOCCn1c(CN[C@@H](C)C(N)=O)nc2cc(Cl)c(-c3ccc(F)cc3F)cc21 [Example 179]
Second: CCOCCn1c(CN[C@@H](C)C(N)=O)nc2cc(Cl)c(-c3ccc(F)c(F)c3)cc21 [Example 180]
The inhibition at 12.5 µM of the first is higher: 67.4% for the first, 4.5% for the second.

Going from `CCOCCn1c(CN[C@@H](C)C(N)=O)nc2cc(Cl)c(-c3ccc(OC(F)(F)F)cc3)cc21` [Example 181] to `CCOCCn1c(CN[C@@H](C)C(N)=O)nc2cc(F)c(-c3ccc(Cl)cc3)cc21` [Example 186], the inhibition at 12.5 µM rises from 0% to 55.6%.

First: CCOCCn1c(CN[C@@H](C)C(N)=O)nc2cc(F)c(-c3ccc(F)c(F)c3)cc21 [Example 183]
Second: CCOCCn1c(CN[C@@H](C)C(N)=O)nc2cc(F)c(-c3ccc(C)c(F)c3)cc21 [Example 189]
The inhibition at 12.5 µM of the first is lower: 72.3% for the first, 97.7% for the second.

First: CCOCCn1c(CN[C@@H](C)C(N)=O)nc2cc(C)c(-c3ccc(F)c(F)c3)cc21 [Example 190]
Second: CCOCCn1c(CN[C@@H](C)C(N)=O)nc2cc(-c3ccc(Cl)cc3)ccc21 [Example 191, N^2-{[5-(4-chlorophenyl)-1-(2-ethoxyethyl)-1H-benzimidazol-2-yl]methyl}-L-alaninamide hydrochloride]
The inhibition at 12.5 µM of the first is higher: 34.3% for the first, 23.3% for the second.

Going from `CCOCCn1c(CN[C@@H](C)C(N)=O)nc2cc(-c3ccc(OC)cc3)ccc21` [Example 192, N^2-{[1-(2-ethoxyethyl)-5-(4-methoxyphenyl)-1H-benzimidazol-2-yl]methyl}-L-alaninamide trifluoroacetate] to `CCOCCn1c(CN[C@@H](C)C(N)=O)nc2ccc(-c3ccc(C)cc3)nc21` [Example 209, N^2-{[3-(2-ethoxyethyl)-5-(4-methylphenyl)-3H-imidazo[4,5-b]pyridin-2-yl]methyl}-L-alaninamide hydrochloride], the inhibition at 12.5 µM falls from 11.9% to 6.5%.

same assay, conditions: compound concentration 12.5 μM

With `CCOCCn1c(CN[C@@H](C)C(N)=O)nc2cc(Cl)c(-c3ccc(F)cc3)cc21` [Example 176] the “SNS inhibitory rate (%)” value was 68.8%.

From patent US20130303535A1, “NOVEL BICYCLIC HETEROCYCLIC COMPOUND” (priority 2008, published 2013)
